Laboratory results from the Kinase Knowledgebase extract (Sharma et al. 2016).

Experiments:
[1] = test system: EGFR (Human), P00533 [T790M/L858R]; settings: nci-h1975
[2] = test system: EGFR (Human), P00533 [Assessment of Proliferation in EGFR DelE746_A750 Mutant Expressing HCC827 Cells]
EGFR (Human), P00533 [Assessment of Proliferation in EGFR DelE746_A750 Mutant Expressing HCC827 Cells], sequence (P00533 whole entry, looked up, stated change not applied): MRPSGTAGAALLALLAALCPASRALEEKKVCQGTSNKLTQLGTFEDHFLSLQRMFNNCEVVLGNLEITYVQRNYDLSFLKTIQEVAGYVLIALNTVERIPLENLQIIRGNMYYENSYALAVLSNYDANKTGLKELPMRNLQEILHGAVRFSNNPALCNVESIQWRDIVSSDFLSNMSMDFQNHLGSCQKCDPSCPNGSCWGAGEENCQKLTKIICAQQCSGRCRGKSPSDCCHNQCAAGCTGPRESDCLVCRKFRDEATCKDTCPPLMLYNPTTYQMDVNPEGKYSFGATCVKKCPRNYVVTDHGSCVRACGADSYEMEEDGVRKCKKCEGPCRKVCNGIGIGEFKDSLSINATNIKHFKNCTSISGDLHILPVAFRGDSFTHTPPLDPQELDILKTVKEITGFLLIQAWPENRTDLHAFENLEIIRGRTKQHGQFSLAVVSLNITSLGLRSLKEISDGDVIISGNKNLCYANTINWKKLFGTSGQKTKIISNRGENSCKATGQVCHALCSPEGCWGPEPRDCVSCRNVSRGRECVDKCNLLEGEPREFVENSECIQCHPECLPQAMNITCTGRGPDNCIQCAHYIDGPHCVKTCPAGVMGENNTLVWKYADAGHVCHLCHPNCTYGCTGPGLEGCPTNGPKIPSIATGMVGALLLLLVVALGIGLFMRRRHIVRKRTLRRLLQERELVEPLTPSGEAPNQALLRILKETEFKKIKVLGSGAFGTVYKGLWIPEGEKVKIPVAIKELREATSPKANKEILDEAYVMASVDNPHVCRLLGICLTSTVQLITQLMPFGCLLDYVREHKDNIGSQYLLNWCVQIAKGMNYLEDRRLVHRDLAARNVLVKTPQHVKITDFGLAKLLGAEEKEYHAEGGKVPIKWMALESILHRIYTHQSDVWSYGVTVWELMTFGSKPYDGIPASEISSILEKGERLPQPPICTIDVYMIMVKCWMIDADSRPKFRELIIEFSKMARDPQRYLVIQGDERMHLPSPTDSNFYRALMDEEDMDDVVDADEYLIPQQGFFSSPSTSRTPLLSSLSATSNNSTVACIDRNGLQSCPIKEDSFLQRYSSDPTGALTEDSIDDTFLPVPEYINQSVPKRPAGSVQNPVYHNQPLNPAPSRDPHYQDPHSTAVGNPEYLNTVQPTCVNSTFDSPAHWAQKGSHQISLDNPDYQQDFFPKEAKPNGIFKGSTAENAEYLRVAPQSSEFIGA

EGFR (Human), P00533 [T790M/L858R], sequence (P00533 whole entry T790M/L858R, looked up): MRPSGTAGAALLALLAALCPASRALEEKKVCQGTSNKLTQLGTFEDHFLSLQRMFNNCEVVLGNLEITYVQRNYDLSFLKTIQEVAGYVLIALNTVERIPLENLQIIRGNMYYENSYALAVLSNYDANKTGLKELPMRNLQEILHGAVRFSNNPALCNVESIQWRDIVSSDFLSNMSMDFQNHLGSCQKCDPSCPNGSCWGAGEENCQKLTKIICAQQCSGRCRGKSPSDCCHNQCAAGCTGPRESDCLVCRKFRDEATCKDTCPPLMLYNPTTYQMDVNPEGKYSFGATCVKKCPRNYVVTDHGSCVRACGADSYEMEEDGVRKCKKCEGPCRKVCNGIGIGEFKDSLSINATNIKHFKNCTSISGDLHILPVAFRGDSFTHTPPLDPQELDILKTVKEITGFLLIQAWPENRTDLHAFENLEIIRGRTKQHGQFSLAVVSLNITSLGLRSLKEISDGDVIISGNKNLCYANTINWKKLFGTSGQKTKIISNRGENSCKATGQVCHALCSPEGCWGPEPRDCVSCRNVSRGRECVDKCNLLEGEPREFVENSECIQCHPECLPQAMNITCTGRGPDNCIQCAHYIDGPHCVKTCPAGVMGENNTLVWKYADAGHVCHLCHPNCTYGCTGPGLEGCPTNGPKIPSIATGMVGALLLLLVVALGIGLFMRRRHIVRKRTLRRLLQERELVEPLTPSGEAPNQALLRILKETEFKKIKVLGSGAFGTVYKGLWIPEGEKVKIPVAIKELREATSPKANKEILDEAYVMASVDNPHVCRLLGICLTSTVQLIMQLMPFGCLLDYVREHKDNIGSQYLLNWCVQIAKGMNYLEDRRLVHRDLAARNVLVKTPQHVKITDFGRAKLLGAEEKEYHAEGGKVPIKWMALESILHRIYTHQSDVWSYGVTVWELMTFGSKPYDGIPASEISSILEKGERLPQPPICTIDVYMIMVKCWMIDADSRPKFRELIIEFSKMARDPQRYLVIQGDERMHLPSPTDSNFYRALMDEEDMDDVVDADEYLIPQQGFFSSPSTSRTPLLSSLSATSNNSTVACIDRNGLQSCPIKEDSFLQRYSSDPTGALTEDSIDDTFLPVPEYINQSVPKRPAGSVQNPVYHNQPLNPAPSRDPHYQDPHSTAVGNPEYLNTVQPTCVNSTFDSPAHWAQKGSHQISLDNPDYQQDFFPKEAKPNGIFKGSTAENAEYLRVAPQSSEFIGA

SMILES | GI50 [2] | GI50 [1]
C=CC(=O)Nc1cccc(Oc2nc(Nc3ccc(N4CC(C)OC(C)C4)c(F)c3)nc3ccsc23)c1 (configuration not stated) | 0.05 to 0.1 µM | 0.05 to 0.1 µM
C=CC(=O)Nc1cccc(Oc2nc(Nc3ccc(N4CCN(S(C)(=O)=O)CC4)c(F)c3)nc3ccsc23)c1 | ≤ 0.05 µM | ≤ 0.05 µM
C=CC(=O)Nc1cccc(Oc2nc(Nc3ccc(N4CCC(N5CCOCC5)CC4)c(F)c3)nc3ccsc23)c1 | ≤ 0.05 µM | ≤ 0.05 µM
C=CC(=O)Nc1cccc(Nc2nc(Nc3ccc(C4CCN(C)CC4)c(F)c3)nc3ccsc23)c1 | ≤ 0.05 µM | ≤ 0.05 µM
C=CC(=O)Nc1cccc(Oc2nc(Nc3ccc(CN4CCC(N(C)C)CC4)c(F)c3)nc3ccsc23)c1 | ≤ 0.05 µM | 0.05 to 0.1 µM
C=CC(=O)Nc1cccc(Oc2nc(Nc3ccc4c(c3)CCN4C(=O)CN(C)C)nc3ccsc23)c1 | ≤ 0.05 µM | ≤ 0.05 µM
C=CC(=O)Nc1ccc(F)c(Nc2nc(Nc3ccc(N4CCN(C)CC4)c(F)c3)nc3ccsc23)c1 | ≤ 0.05 µM | ≤ 0.05 µM
C=CC(=O)Nc1cccc(Oc2nc(Nc3ccc(NC4CCN(C(C)C)CC4)c(F)c3)nc3ccsc23)c1 | ≤ 0.05 µM | ≤ 0.05 µM
C=CC(=O)Nc1cccc(Oc2nc(Nc3ccc(N4CCC(N5CCCCC5)CC4)c(F)c3)nc3ccsc23)c1 | ≤ 0.05 µM | ≤ 0.05 µM
C=CC(=O)Nc1cccc(Oc2nc(Nc3ccc4c(c3)NCCCO4)nc3ccsc23)c1 | ≤ 0.05 µM | ≤ 0.05 µM
C=CC(=O)Nc1cccc(Nc2nc(Nc3ccc(N4CCN(C)CC4)c(F)c3)nc3ccsc23)c1 | ≤ 0.05 µM | ≤ 0.05 µM
C=CC(=O)Nc1cccc(Oc2nc(Nc3ccc(N4CCN(C)CC4)c(OC)c3)nc3ccoc23)c1 | ≤ 0.05 µM | ≤ 0.05 µM
C=CC(=O)Nc1cccc(Oc2nc(Nc3ccc(C(=O)OCCCN(C)C)cc3)nc3ccsc23)c1 | 0.05 to 0.1 µM | 0.05 to 0.1 µM
C=CC(=O)Nc1cccc(Nc2nc(Nc3ccc(CCN4CCN(C)CC4)cc3)nc3ccsc23)c1 | 0.05 to 0.1 µM | ≤ 0.05 µM
C=CC(=O)Nc1cccc(Nc2nc(Nc3ccc(C4CCCN(C)C4)cc3)nc3ccsc23)c1 (configuration not stated) | ≤ 0.05 µM | ≤ 0.05 µM
C=CC(=O)Nc1cccc(Oc2nc(Nc3ccc(NC4CCN(C)CC4)c(F)c3)nc3ccoc23)c1 | ≤ 0.05 µM | ≤ 0.05 µM
C=CC(=O)Nc1cccc(Nc2nc(Nc3ccc(N4CCN(C(C)C)CC4)cc3)nc3ccsc23)c1 | ≤ 0.05 µM | ≤ 0.05 µM
C=CC(=O)Nc1cccc(Oc2nc(Nc3ccc(OCCN(CC)CC)c(F)c3)nc3ccsc23)c1 | ≤ 0.05 µM | ≤ 0.05 µM

Now from value to compound, other results behind:

GI50 [2] | SMILES | GI50 [1]
≤ 0.05 µM | C=CC(=O)Nc1cccc(Oc2nc(Nc3ccc(CCN(C)C)cc3)nc3ccsc23)c1 | ≤ 0.05 µM
0.05 to 0.1 µM | C=CC(=O)Nc1cccc(Oc2nc(Nc3ccc(S(=O)(=O)NC4CC4)cc3)nc3ccsc23)c1 | ≤ 0.05 µM
≤ 0.05 µM | C=CC(=O)Nc1cccc(Oc2nc(Nc3ccc(S(=O)(=O)N4CCN(CC)CC4)cc3)nc3ccsc23)c1 | 0.05 to 0.1 µM
0.05 to 0.1 µM | C=CC(=O)Nc1cccc(Oc2nc(Nc3ccc(CN4CCOCC4)cc3)nc3ccsc23)c1 | ≤ 0.05 µM
≤ 0.05 µM | C=CC(=O)Nc1cccc(Oc2nc(Nc3ccc(CN4CCC(N(C)C)CC4)cc3)nc3ccsc23)c1 | ≤ 0.05 µM
≤ 0.05 µM | C=CC(=O)Nc1cccc(Oc2nc(Nc3ccc(C4CCN(CC)CC4)cc3)nc3ccsc23)c1 | ≤ 0.05 µM
0.1 to 1 µM | C=CC(=O)Nc1cccc(Oc2nc(Nc3ccc(O)cc3)nc3ccsc23)c1 | 0.1 to 1 µM
0.05 to 0.1 µM | C=CC(=O)Nc1cccc(Oc2nc(Nc3ccc(N4CCN(CC(F)(F)F)CC4)cc3)nc3ccsc23)c1 | ≤ 0.05 µM
≤ 0.05 µM | C=CC(=O)Nc1cccc(Oc2nc(Nc3ccc(CN4CCN(CC)CC4)cc3)nc3ccsc23)c1 | ≤ 0.05 µM
≤ 0.05 µM | C=CC(=O)Nc1cccc(Oc2nc(Nc3ccc(N4CCS(=O)(=O)CC4)cc3)nc3ccsc23)c1 | ≤ 0.05 µM
0.05 to 0.1 µM | C=CC(=O)Nc1cccc(Oc2nc(Nc3ccc(CCN4CCN(CC)CC4)cc3)nc3ccsc23)c1 | ≤ 0.05 µM
0.05 to 0.1 µM | C=CC(=O)Nc1cccc(Oc2nc(Nc3ccc(C4CCN(C)CC4)c(Cl)c3)nc3ccsc23)c1 | 0.05 to 0.1 µM
≤ 0.05 µM | C=CC(=O)Nc1cccc(Oc2nc(Nc3ccc(N4CCN(CC(F)F)CC4)cc3)nc3ccsc23)c1 | ≤ 0.05 µM
0.1 to 1 µM | C=CC(=O)Nc1cccc(Oc2nc(Nc3ccc(N4CCCCC4)cc3)nc3ccsc23)c1 | ≤ 0.05 µM
0.05 to 0.1 µM | C=CC(=O)Nc1cccc(Oc2nc(Nc3ccc(S(C)(=O)=O)cc3)nc3ccsc23)c1 | ≤ 0.05 µM
≤ 0.05 µM | C=CC(=O)Nc1cccc(Oc2nc(Nc3ccc(N4CCN(CCO)CC4)cc3)nc3ccsc23)c1 | ≤ 0.05 µM
≤ 0.05 µM | C=CC(=O)Nc1cccc(Oc2nc(Nc3ccc(C4CCN(C(C)C)CC4)cc3)nc3ccsc23)c1 | ≤ 0.05 µM
≤ 0.05 µM | C=CC(=O)Nc1cccc(Oc2nc(Nc3ccc(N4CCN(C)CC4)c(Cl)c3)nc3ccsc23)c1 | ≤ 0.05 µM
